Measurements: ChEMBL document CHEMBL5727988, “Prodrugs of pyridone amides useful as modulators of sodium channels” (2020)
pIC50: −log10 of the molar value.

Assay: Electrophysiology Assay: Patch clamp electrophysiology was used to assess the efficacy and selectivity of sodium channel blockers in dorsal root ganglion neurons. Rat neurons were isolated from the dorsal root ganglions and maintained in culture for 2 to 10 days in the presence of NGF (50 ng/ml) (culture media consisted of NeurobasalA supplemented with B27, glutamine and antibiotics). Small diameter neurons (nociceptors, 8-12 μm in diameter) were visually identified and probed with fine tip glass electrodes connected to an amplifier (Axon Instruments). The “voltage clamp” mode was used to assess the compound's IC50 holding the cells at −60 mV. In addition, the “current clamp” mode was employed to test the efficacy of the compounds in blocking action potential generation in response to current injections.

SMILES | pIC50
COc1cc(NC(=O)c2ccc(C(F)(F)F)cc2F)ccn1 | 7.36
Cc1cc(F)ccc1Oc1cc(C(F)(F)F)ccc1C(=O)Nc1ccn(CCl)c(=O)c1 | 7.55
